From US10383333B2, “Carbamate compound and use thereof” (SUMITOMO CHEMICAL COMPANY, LIMITED, priority 2015, dated 2019)

Test system: wheat rust fungus (Puccinia recondita)
Test: Test Example 2: wheat rust, foliar spray before inoculation
Type: in vivo
Conditions: 500 ppm foliar spray on wheat (Shirogane), inoculated 5 days after spraying, formulated per Formulation Example 6

Q: With `COC(=O)Nc1ccccc1COc1ccc(-c2ccccn2)cc1` [methyl N-(2-{[4-(pyridine-2-yl)phenoxy)methyl}phenyl)carbamate] as the compound, how does the “area of the lesion relative to untreated wheat” value read?
A: ≥ 70%
